Experiments:
Assay type in all cases: in vivo
[1] = test system: barnyardgrass (Echinochloa crus-galli); assay: Test A postemergence, barnyardgrass; settings: visual rating after approx. 10 d, 0 to 100 scale, 0 no effect, 100 complete control
Source text: (§1) Seeds of plant species selected from barnyardgrass (Echinochloa crus-galli), crabgrass (large crabgrass, Digitaria sanguinalis), kochia (Kochia scoparia), ragweed (common ragweed, Ambrosia elatior), morningglory (Ipomoea spp.), velvetleaf (Abutilon theophrasti), ryegrass, Italian (Italian ryegrass, Lolium multiflorum), foxtail, giant (giant foxtail, Setaria faberii), wheat (Triticum aestivum), corn (Zea mays), and pigweed (Amaranthus retroflexus), were planted into a blend of loam soil and sand and treated preemergence with a directed soil spray using test chemicals formulated in a non-phytotoxic solvent mixture which included a surfactant. At the same time, plants selected from these crop and weed species and also blackgrass (Alopecurus myosuroides), and galium (catchweed bedstraw, Galium aparine), were planted in pots containing the same blend of loam soil and sand and treated with postemergence applications of test chemicals formulated in the same manner. Plants ranged in height from 2 to 10 cm and were in the one- to two-leaf stage for the postemergence treatment. Treated plants and untreated controls were maintained in a greenhouse for approximately 10 d, after which time all treated plants were compared to untreated controls and visually evaluated for injury. Plant response ratings, summarized in Table A, are based on a 0 to 100 scale where 0 is no effect and 100 is complete control. A dash (-) response means no test result.

[2] = test system: ryegrass, Italian (Italian ryegrass, Lolium multiflorum); assay: Test A preemergence, Italian ryegrass; settings: visual rating after approx. 10 d, 0 to 100 scale, 0 no effect, 100 complete control
Source text: as §1

[3] = test system: ryegrass, Italian (Italian ryegrass, Lolium multiflorum); assay: Test A postemergence, Italian ryegrass; settings: visual rating after approx. 10 d, 0 to 100 scale, 0 no effect, 100 complete control
Source text: as §1

[4] = test system: foxtail, giant (giant foxtail, Setaria faberii); assay: Test A postemergence, giant foxtail; settings: visual rating after approx. 10 d, 0 to 100 scale, 0 no effect, 100 complete control
Source text: as §1

[5] = test system: barnyardgrass (Echinochloa crus-galli); assay: Test B flooded paddy test, barnyardgrass; settings: applied to paddy water at 2-leaf stage, 13 to 15 d, scale 0 no effect to 100 complete control
Experimental: (§2) Plant species in the flooded paddy test selected from rice (Oryza sativa), sedge, umbrella (small-flower umbrella sedge, Cyperus difformis), ducksalad (Heteranthera limosa), and barnyardgrass (Echinochloa crus-galli) were grown to the 2-leaf stage for testing. At time of treatment, test pots were flooded to 3 cm above the soil surface, treated by application of test compounds directly to the paddy water, and then maintained at that water depth for the duration of the test. Treated plants and controls were maintained in a greenhouse for 13 to 15 d, after which time all species were compared to controls and visually evaluated. Plant response ratings, summarized in Table B, are based on a scale of 0 to 100 where 0 is no effect and 100 is complete control. A dash (-) response means no test result.

kochia (Kochia scoparia) [6] = assay: Test A preemergence, kochia; settings: visual rating after approx. 10 d, 0 to 100 scale, 0 no effect, 100 complete control
Source text: as §1

[7] = test system: ducksalad (Heteranthera limosa); assay: Test B flooded paddy test, ducksalad; settings: applied to paddy water at 2-leaf stage, 13 to 15 d, scale 0 no effect to 100 complete control
Experimental: as §2

kochia (Kochia scoparia) [8] = assay: Test A postemergence, kochia; settings: visual rating after approx. 10 d, 0 to 100 scale, 0 no effect, 100 complete control
Source text: as §1

[9] = test system: galium (catchweed bedstraw, Galium aparine); assay: Test A postemergence, galium; settings: visual rating after approx. 10 d, 0 to 100 scale, 0 no effect, 100 complete control
Source text: as §1

[10] = test system: wheat (Triticum aestivum); assay: Test A postemergence, wheat; settings: visual rating after approx. 10 d, 0 to 100 scale, 0 no effect, 100 complete control
Source text: as §1

[11] = test system: ragweed (common ragweed, Ambrosia elatior); assay: Test A postemergence, ragweed; settings: visual rating after approx. 10 d, 0 to 100 scale, 0 no effect, 100 complete control
Source text: as §1

corn (Zea mays) = assay: Test A postemergence, corn; settings: visual rating after approx. 10 d, 0 to 100 scale, 0 no effect, 100 complete control
Source text: as §1

[12] = test system: blackgrass (Alopecurus myosuroides); assay: Test A postemergence, blackgrass; settings: visual rating after approx. 10 d, 0 to 100 scale, 0 no effect, 100 complete control
Source text: as §1

[13] = test system: pigweed (Amaranthus retroflexus); assay: Test A postemergence, pigweed; settings: visual rating after approx. 10 d, 0 to 100 scale, 0 no effect, 100 complete control
Source text: as §1

[14] = test system: foxtail, giant (giant foxtail, Setaria faberii); assay: Test A preemergence, giant foxtail; settings: visual rating after approx. 10 d, 0 to 100 scale, 0 no effect, 100 complete control
Source text: as §1

[15] = test system: ragweed (common ragweed, Ambrosia elatior); assay: Test A preemergence, ragweed; settings: visual rating after approx. 10 d, 0 to 100 scale, 0 no effect, 100 complete control
Source text: as §1

[16] = test system: barnyardgrass (Echinochloa crus-galli); assay: Test A preemergence, barnyardgrass; settings: visual rating after approx. 10 d, 0 to 100 scale, 0 no effect, 100 complete control
Source text: as §1

rice (Oryza sativa) = assay: Test B flooded paddy test, rice; settings: applied to paddy water at 2-leaf stage, 13 to 15 d, scale 0 no effect to 100 complete control
Experimental: as §2

[17] = test system: pigweed (Amaranthus retroflexus); assay: Test A preemergence, pigweed; settings: visual rating after approx. 10 d, 0 to 100 scale, 0 no effect, 100 complete control
Source text: as §1

[18] = test system: sedge, umbrella (small-flower umbrella sedge, Cyperus difformis); assay: Test B flooded paddy test, umbrella sedge; settings: applied to paddy water at 2-leaf stage, 13 to 15 d, scale 0 no effect to 100 complete control
Experimental: as §2

Row | SMILES | Plant response rating, Barnyardgrass ([1]; 125 g ai/ha) | Plant response rating, Barnyardgrass ([1]; 500 g ai/ha) | Plant response rating, Ryegrass, Italian ([3]; 125 g ai/ha) | Plant response rating, Ryegrass, Italian ([3]; 500 g ai/ha) | Plant response rating, Foxtail, Giant ([4]; 125 g ai/ha) | Plant response rating, Foxtail, Giant ([4]; 500 g ai/ha) | Plant response rating, Kochia (kochia (Kochia scoparia) [8]; 125 g ai/ha) | Plant response rating, Kochia (kochia (Kochia scoparia) [8]; 500 g ai/ha) | Plant response rating, Galium ([9]; 125 g ai/ha) | Plant response rating, Galium ([9]; 500 g ai/ha) | Plant response rating, Wheat ([10]; 125 g ai/ha) | Plant response rating, Wheat ([10]; 500 g ai/ha) | Plant response rating, Ragweed ([11]; 125 g ai/ha) | Plant response rating, Ragweed ([11]; 500 g ai/ha) | Plant response rating, Corn (corn (Zea mays); 125 g ai/ha) | Plant response rating, Corn (corn (Zea mays); 500 g ai/ha) | Plant response rating, Blackgrass ([12]; 125 g ai/ha) | Plant response rating, Blackgrass ([12]; 500 g ai/ha) | Plant response rating, Pigweed ([13]; 125 g ai/ha) | Plant response rating, Pigweed ([13]; 500 g ai/ha) | further results
1 | O=C(Nc1ccccc1F)C1C(=O)OCC1c1ccc(F)c(C(F)(F)F)c1 (racemic) [Compound 16] | 20 | 50 | 0 | 0 | 20 | 40 | 0 | 0 | 0 | 0 | 0 | 0 | 0 | 0 | 0 | 0 | 0 | 0 | 0 | 0 | Plant response rating, Ryegrass, Italian ([2]; 125 g ai/ha): 0; Plant response rating, Ryegrass, Italian ([2]; 500 g ai/ha): 0; Plant response rating, Flood, Barnyardgrass ([5]; 500 g ai/ha): 0; Plant response rating, Kochia (kochia (Kochia scoparia) [6]; 125 g ai/ha): 0; Plant response rating, Kochia (kochia (Kochia scoparia) [6]; 500 g ai/ha): 0; Plant response rating, Flood, Ducksalad ([7]; 500 g ai/ha): 0; Plant response rating, Foxtail, Giant ([14]; 125 g ai/ha): 50; Plant response rating, Foxtail, Giant ([14]; 500 g ai/ha): 80; Plant response rating, Ragweed ([15]; 125 g ai/ha): 0; Plant response rating, Ragweed ([15]; 500 g ai/ha): 0; Plant response rating, Barnyardgrass ([16]; 125 g ai/ha): 30; Plant response rating, Barnyardgrass ([16]; 500 g ai/ha): 60; Plant response rating, Flood, Rice (rice (Oryza sativa); 500 g ai/ha): 0; Plant response rating, Pigweed ([17]; 125 g ai/ha): 0; Plant response rating, Pigweed ([17]; 500 g ai/ha): 0; Plant response rating, Flood, Sedge, Umbrella ([18]; 500 g ai/ha): 0
2 | O=C(Nc1ccccc1F)C1C(=O)OCC1c1cccc(C(F)(F)F)c1 (racemic) [Compound 11] | 10 | 40 | 0 | 0 | 20 | 60 | 0 | 0 | 0 | 0 | 0 | 20 | 0 | 0 | 0 | 0 | 0 | 0 | 0 | 0 | Plant response rating, Ryegrass, Italian ([2]; 125 g ai/ha): 0; Plant response rating, Ryegrass, Italian ([2]; 500 g ai/ha): 0; Plant response rating, Flood, Barnyardgrass ([5]; 500 g ai/ha): 0; Plant response rating, Kochia (kochia (Kochia scoparia) [6]; 125 g ai/ha): 0; Plant response rating, Kochia (kochia (Kochia scoparia) [6]; 500 g ai/ha): 0; Plant response rating, Flood, Ducksalad ([7]; 500 g ai/ha): 0; Plant response rating, Foxtail, Giant ([14]; 125 g ai/ha): 70; Plant response rating, Foxtail, Giant ([14]; 500 g ai/ha): 80; Plant response rating, Ragweed ([15]; 125 g ai/ha): 0; Plant response rating, Ragweed ([15]; 500 g ai/ha): 0; Plant response rating, Barnyardgrass ([16]; 125 g ai/ha): 30; Plant response rating, Barnyardgrass ([16]; 500 g ai/ha): 80; Plant response rating, Flood, Rice (rice (Oryza sativa); 500 g ai/ha): 0; Plant response rating, Pigweed ([17]; 125 g ai/ha): 0; Plant response rating, Pigweed ([17]; 500 g ai/ha): 0; Plant response rating, Flood, Sedge, Umbrella ([18]; 500 g ai/ha): 0
3 | O=C(Nc1cccc(F)c1F)C1C(=O)OCC1c1ccc(F)c(C(F)(F)F)c1 (racemic) [Compound 15] | 30 | 70 | 0 | 20 | 30 | 70 | 0 | 0 | 0 | 20 | 0 | 20 | 0 | 0 | 0 | 20 | 0 | 20 | 0 | 0 | Plant response rating, Ryegrass, Italian ([2]; 125 g ai/ha): 0; Plant response rating, Ryegrass, Italian ([2]; 500 g ai/ha): 40; Plant response rating, Flood, Barnyardgrass ([5]; 500 g ai/ha): 0; Plant response rating, Kochia (kochia (Kochia scoparia) [6]; 125 g ai/ha): 0; Plant response rating, Kochia (kochia (Kochia scoparia) [6]; 500 g ai/ha): 0; Plant response rating, Flood, Ducksalad ([7]; 500 g ai/ha): 0; Plant response rating, Foxtail, Giant ([14]; 125 g ai/ha): 70; Plant response rating, Foxtail, Giant ([14]; 500 g ai/ha): 90; Plant response rating, Ragweed ([15]; 125 g ai/ha): 0; Plant response rating, Ragweed ([15]; 500 g ai/ha): 0; Plant response rating, Barnyardgrass ([16]; 125 g ai/ha): 40; Plant response rating, Barnyardgrass ([16]; 500 g ai/ha): 70; Plant response rating, Flood, Rice (rice (Oryza sativa); 500 g ai/ha): 0; Plant response rating, Pigweed ([17]; 125 g ai/ha): 0; Plant response rating, Pigweed ([17]; 500 g ai/ha): 0; Plant response rating, Flood, Sedge, Umbrella ([18]; 500 g ai/ha): 0
4 | CC1(C(=O)Nc2cccc(F)c2F)C(=O)OCC1c1ccc(F)cc1 (racemic) [Compound 22] | 90 |  | 20 |  | 60 |  | 0 |  | 20 |  | 0 |  | 0 |  | 0 |  | 0 |  | 0 |  | Plant response rating, Barnyardgrass ([1]; 31 g ai/ha): 40; Plant response rating, Ryegrass, Italian ([3]; 31 g ai/ha): 20; Plant response rating, Foxtail, Giant ([4]; 31 g ai/ha): 30; Plant response rating, Flood, Barnyardgrass ([5]; 250 g ai/ha): 0; Plant response rating, Flood, Ducksalad ([7]; 250 g ai/ha): 0; Plant response rating, Kochia (kochia (Kochia scoparia) [8]; 31 g ai/ha): 0; Plant response rating, Galium ([9]; 31 g ai/ha): 0; Plant response rating, Wheat ([10]; 31 g ai/ha): 0; Plant response rating, Ragweed ([11]; 31 g ai/ha): 0; Plant response rating, Corn (corn (Zea mays); 31 g ai/ha): 0; Plant response rating, Blackgrass ([12]; 31 g ai/ha): 0; Plant response rating, Pigweed ([13]; 31 g ai/ha): 0; Plant response rating, Flood, Rice (rice (Oryza sativa); 250 g ai/ha): 20; Plant response rating, Flood, Sedge, Umbrella ([18]; 250 g ai/ha): 0
5 | CC1(C(=O)Nc2ccccc2C(F)(F)F)C(=O)OCC1c1ccc(F)cc1 (racemic) [Compound 21] | 0 | 30 | 0 | 0 | 0 | 0 | 0 | 0 | 0 | 30 | 0 | 0 | 0 | 40 | 0 | 0 | 0 | 30 | 0 | 0 | Plant response rating, Flood, Barnyardgrass ([5]; 250 g ai/ha): 90; Plant response rating, Flood, Ducksalad ([7]; 250 g ai/ha): 90; Plant response rating, Flood, Rice (rice (Oryza sativa); 250 g ai/ha): 30; Plant response rating, Flood, Sedge, Umbrella ([18]; 250 g ai/ha): 0
